Experimental data taken from ChEMBL document CHEMBL1150495, “Balanced angiotensin II receptor antagonists. I. The effects of biphenyl ortho-substitution on AT1/AT2 affinities” (Bioorg Med Chem Lett, 1994).

Tests used:
[1] = target: T1, Angiotensin II receptor (AT-1) type-1 (Rattus norvegicus, UniProt P29089+P25095); assay: Displacement of [125I]- Ang II from angiotensin II AT1 receptor in rat adrenal cortical microsomes; design: species or system Microsome
T1 sequence (P29089 whole entry): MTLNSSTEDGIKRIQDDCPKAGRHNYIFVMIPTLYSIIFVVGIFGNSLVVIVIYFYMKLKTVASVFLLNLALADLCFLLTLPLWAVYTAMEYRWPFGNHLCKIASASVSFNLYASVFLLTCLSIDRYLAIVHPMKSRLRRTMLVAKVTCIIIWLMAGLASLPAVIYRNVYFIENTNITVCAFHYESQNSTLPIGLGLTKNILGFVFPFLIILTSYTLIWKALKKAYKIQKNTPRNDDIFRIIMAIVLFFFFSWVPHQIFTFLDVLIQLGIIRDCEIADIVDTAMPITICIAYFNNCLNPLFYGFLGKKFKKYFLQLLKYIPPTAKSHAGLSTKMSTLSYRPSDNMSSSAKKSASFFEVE
T1 sequence (P25095 whole entry): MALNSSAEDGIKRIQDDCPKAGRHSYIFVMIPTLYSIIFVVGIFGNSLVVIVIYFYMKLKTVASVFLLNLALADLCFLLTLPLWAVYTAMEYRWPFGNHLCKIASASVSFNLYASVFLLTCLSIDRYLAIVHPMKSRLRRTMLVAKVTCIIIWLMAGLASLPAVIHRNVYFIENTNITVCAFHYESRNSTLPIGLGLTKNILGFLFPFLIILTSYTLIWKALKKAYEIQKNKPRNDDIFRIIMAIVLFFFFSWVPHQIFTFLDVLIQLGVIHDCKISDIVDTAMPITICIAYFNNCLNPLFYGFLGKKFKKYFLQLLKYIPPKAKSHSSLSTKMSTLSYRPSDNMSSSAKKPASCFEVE

[2] = target: T2, Type-2 angiotensin II receptor (Rattus norvegicus, UniProt P35351); assay: Displacement of [125I]- Ang II from angiotensin II AT2 receptor in rat adrenal cortical microsomes; design: species or system Microsome
T2 sequence (P35351 whole entry): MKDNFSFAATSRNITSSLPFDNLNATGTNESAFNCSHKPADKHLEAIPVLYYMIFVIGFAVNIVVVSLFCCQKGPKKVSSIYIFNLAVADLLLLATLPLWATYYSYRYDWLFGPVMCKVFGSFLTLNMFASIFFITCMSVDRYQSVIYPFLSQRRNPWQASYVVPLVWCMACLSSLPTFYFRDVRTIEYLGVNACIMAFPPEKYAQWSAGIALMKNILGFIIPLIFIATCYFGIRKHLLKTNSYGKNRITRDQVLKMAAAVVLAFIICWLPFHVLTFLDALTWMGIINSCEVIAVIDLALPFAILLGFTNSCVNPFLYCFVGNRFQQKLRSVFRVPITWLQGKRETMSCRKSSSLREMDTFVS

[3] = test system: Rattus norvegicus; assay: Reduction of blood pressure by 30 mmHg in renal hypertensive rats by intravenous administration; assay type: functional
[4] = test system: Rattus norvegicus; assay: Effective dose to lower blood pressure by 30 mmHg in renal hypertensive rats by peroral administration; assay type: functional; conditions: po
[5] = test system: Rattus norvegicus; assay: Duration required to lower blood pressure by 30 mmHg in renal hypertensive rats at a dose of 3.0 mg/kg; assay type: functional
[6] = target: Angiotensin II receptor (Homo sapiens) (UniProt P30556+P50052); assay: Affinity towards angiotensin receptor was expressed as the ratio of Angiotensin II AT2 receptor over Angiotensin II AT1 receptor; assay type: protein assay
[7] = target: T2, Type-2 angiotensin II receptor; assay: Compound was tested for the inhibition of angiotensin II AT2 receptor by displacement of [125I]- Ang II to rat adrenal cortical microsomes

| Compound | IC50 [1] [nM] | IC50 [2] [nM] | ED30 [3] [mg/kg] | ED30 [4] [mg/kg] | Duration [5] [h] | Ratio [6] | IC50 [7] [nM] |
| --- | --- | --- | --- | --- | --- | --- | --- |
| CCCc1nc(CC)c(C=O)n1Cc1ccc(-c2ccccc2S(=O)(=O)NC(=O)c2ccccc2)cc1 | 2.4 | 500 | – | – | – | – | – |
| CCCCOC(=O)NS(=O)(=O)c1ccccc1-c1ccc(Cn2c(CCC)nc(CC)c2C(=O)OC)c(F)c1 | 0.6 | 4 | 0.11 | < 0.3 | – | – | – |
| CCCCOC(=O)NS(=O)(=O)c1ccccc1-c1ccc(Cn2c(CCC)nc(CC)c2C(C)=O)c(F)c1 | – | 3 | 0.1 | 0.48 | >24 | 3 | – |
| CCCc1nc(CC)c(C=O)n1Cc1ccc(-c2ccccc2-c2nn[nH]n2)cc1Cl | 10 | 500 | 0.87 | – | – | – | – |
| CCCCOC(=O)NS(=O)(=O)c1ccccc1-c1ccc(Cn2c(CCC)nc(CC)c2C(=O)OC)c(Br)c1 | 2 | 20 | – | – | – | – | – |
| CCCc1nc(CC)c(C=O)n1Cc1ccc(-c2ccccc2-c2nn[nH]n2)cc1 | 2 | > 10000 | 0.04 | – | – | – | – |
| CCCc1nc(CC)c(C(=O)OC)n1Cc1ccc(-c2ccccc2S(=O)(=O)NC(=O)OCCC(C)C)cc1F | – | 1 | 0.12 | 0.67 | >24 | 1 | – |
| CCCCOC(=O)NS(=O)(=O)c1ccccc1-c1ccc(Cn2c(CCC)nc(CC)c2C=O)c(F)c1 | 0.7 | 2 | 0.13 | < 1 | – | – | – |
| CCCc1nc(CC)c(C=O)n1Cc1ccc(-c2ccccc2-c2nn[nH]n2)cc1F | 7 | 3000 | 0.17 | – | – | – | – |
| CCCCOC(=O)NS(=O)(=O)c1ccccc1-c1ccc(Cn2c(CCC)nc(CC)c2C(=O)OC)cc1 | 2 | 40 | – | – | – | – | – |
| CCCCOC(=O)NS(=O)(=O)c1ccccc1-c1ccc(Cn2c(CCC)nc(CC)c2C(=O)OC)c(Cl)c1 | – | 7 | 0.51 | 0.44 | >24 | 2.3 | – |
| CCCc1nc(CC)c(C=O)n1Cc1ccc(-c2ccccc2-c2nn[nH]n2)cc1Br | 20 | 700 | 1.05 | – | – | – | – |
| CCCCOC(=O)NS(=O)(=O)c1ccccc1-c1ccc(Cn2c(CCC)nc(CC)c2C=O)c(C)c1 | 3 | 9 | 0.23 | 0.86 | – | – | – |
| CCCCOC(=O)NS(=O)(=O)c1ccccc1-c1ccc(Cn2c(CCC)nc(CC)c2C(C)=O)c(C)c1 | 2 | 20 | 0.24 | 0.55 | – | – | – |
| CCCCOC(=O)NS(=O)(=O)c1ccccc1-c1ccc(Cn2c(CCC)nc(CC)c2C(=O)OC)c(C)c1 | 3 | 10 | 0.15 | 0.56 | – | – | – |
| CCCc1nc(C(F)(F)C(F)(F)F)c(C(=O)O)n1Cc1ccc(-c2ccccc2-c2nn[nH]n2)cc1Br | – | – | – | – | – | – | 80 |
| CCCCOC(=O)NS(=O)(=O)c1ccccc1-c1ccc(Cn2c(CCC)nc(CC)c2C(C)=O)c(Cl)c1 | 6 | 12 | 0.11 | 0.96 | – | – | – |
| CCCCOC(=O)NS(=O)(=O)c1ccccc1-c1ccc(Cn2c(CCC)nc(CC)c2C(=O)OC)c([N+](=O)[O-])c1 | 7 | 20 | – | – | – | – | – |
| CCCCOC(=O)NS(=O)(=O)c1ccccc1-c1ccc(Cn2c(CCC)nc(CC)c2C=O)cc1 | 2 | 10 | 0.23 | 0.18 | – | – | – |
| CCCCOC(=O)NS(=O)(=O)c1ccccc1-c1ccc(Cn2c(CCC)nc(CC)c2C(C)=O)cc1 | 2 | 80 | 0.26 | 0.25 | – | – | – |
| CCCc1nc(CC)c(C=O)n1Cc1ccc(-c2ccccc2-c2nn[nH]n2)cc1C | 40 | 1000 | 1.4 | – | – | – | – |
| CCCNC(=O)NS(=O)(=O)c1ccccc1-c1ccc(Cn2c(CCC)nc(SC)c2C(=O)O)cc1 | 0.3 | 775 | – | – | – | – | – |
| CCCc1nc(C(F)(F)C(F)(F)F)c(C(=O)O)n1Cc1ccc(-c2ccccc2-c2nn[nH]n2)cc1 | 3 | > 10000 | – | – | – | – | – |
